This note sets out measurements from patent US12466875B2, “Supramolecular high affinity protein-binding system for purification of biomacromolecules” (THE JOHNS HOPKINS UNIVERSITY, priority 2017, dated 2025).

Entries after “also recorded” stand apart in the source; their conditions may differ.

This test relates to FITC-IgG. Put plainly: Confocal fluorescence imaging with FITC-IgG. To be noted: 2 μM FITC-IgG in PBS pH 7.4. The format is binding. The text has this: FIGS. 10A-C. […] (A) Image of Rhodamine B fluorescence. (B) Image of FITC fluorescence and (C) merged image of (A) and (B). Scale bar: 20 μm.
To better visualize the interactions between C12-Z33 immunofibers and IgG, labelling the C12-Z33 with the fluorescent dye (Rhodamine B) allows for direct imaging of fluorescent immunofibers and FITC-IgG under a confocal laser scanning microscope. Rhodamine B has been extensively used for staining biomaterials. […] The self-assembled fibrous morphology in PBS was confirmed using TEM (FIG. 9C). 100 μM RB-C12-Z33 diluted from a 1 mM stock solution and 2 μM FITC-IgG were premixed in PBS. 30 μl solution was spotted on a clean microscope slide right before imaging and covered by a coverslip to obtain a thin layer of liquid.

With “RB-C12-Z33: Rhodamine B labelled C12-Z33; lysine added at N-terminal of Z33, Rhodamine B and C12 conjugated to its amine groups”, the “fluorescence of FITC-IgG after incubation (confocal)” value is listed as “co-localization of the fluorescence signal; also recorded: co-localization of fluorescence signals”.
